“Also recorded” adds a separate entry of the source.
What was measured:
[1] = test system: AKR/J mice exposed to cigarette smoke for 5 months; assay: Chronic 5 months cigarette smoke exposure model, LXR agonist in diet; assay type: in vivo, mouse; conditions: for cigarette smoke induced protein levels of TNFα in the BAL / level of ABCA1 in BAL and lung tissue / total inflammatory cell counts in BAL: diet 0.015% w/w (30 mg/kg)
Description: (§1) Mice were chronically exposed to smoke in a specially designed chamber (Teague Enterprise, CA). 8 weeks old mice were smoke-exposed for 5 hours a day, 5 days a week for 10 days and 5 months. The total particulate matter (TPM) within the smoking chamber was regulated so that the mice receive a TPM of 100 mg/m^3. TPM was determined by a gravimetric analysis of filter samples taken during the exposure period. Mice (C57BL/6, AKR/J strain) were smoke exposed for 10 days and 5 months and compared to room air exposed controls.
Eight week-old AKR/J mice were utilized in the study and exposed to three different conditions: room air (n=8), cigarette smoke (n=8), cigarette smoke with additional treatment with LXR agonist (n=8). The LXR agonist was delivered in the diet and the concentration calculated based on the average mouse weight (30 g) and food consumption (6 g/day). Experimental food was prepared with a 0.015% LXR agonist (T0901317-Cayman Chemicals) in food (w/w) concentration corresponding to 30 mg/kg body weight. Both the control group and the custom drug diet were prepared by Research diets, Inc., New Brunswick, N.J. (Control diet (C11000)—Purina Rodent Chow 5001, Custom Diet (C13861)—Purina Rodent Chow 5001 with 0.015% LXR agonist (T0901317-Cayman Chemicals).
To determine the pulmonary compliance of the lung, a closed chest model was utilized (Foronjy et al., 2005). Respiratory mechanics were measured using a flexiVent (SCIREQ) system (Foronjy et al., 2005). Pentobarbital was used for sedation and succinylcholine for paralysis. The mice then underwent neck dissection and tracheostomy followed by a full assessment of pulmonary mechanics in triplicate utilizing the flexiVent system (Foronjy et al., 2005). After the airway measurements were performed the animals were sacrificed by CO2 inhalation and further utilized for tissue, BAL and lung analysis.
(§2) The BAL fluid was collected by perfusing the lungs with 2 ml of phosphate buffered saline (PBS). The samples were then centrifuged to pellet down the cells and re-suspended in 300 μl of PBS. To obtain the total cell count, cells were counted using a hematocytometer for which, 10 μl of the sample was utilized. To obtain the differential cell count, the slides were prepared using a cytopsin. 150 μl of sample was taken to prepare slides. These slides were stained using Hematoxylin and Eosin (H&E) and a number of regular and foamy like macrophages and lymphocytes counted under the microscope. A foamy like phenotype (Hirama et al., 2007) was identified by examining the sequential increase in macrophage size. Lipid staining was not performed.
Histological evaluation of the inflammation was performed on the left lungs which were fixed using 10% formalin. Fixed tissue was stained with H&E and Trichrome and mean linear intercept (MLI) determined as described previously (Foronjy et al., 2008; Foronjy et al., 2005; Foronjy et al., 2001; Foronjy et al., 2010; Foronjy et al., 2008a; Foronjy et al., 2006; Foronjy et al., 2003; Geraghty et al., 2013).
(§3) Total RNA was extracted from specimens of lung tissue 0.3 cm^3 in size with the use of the RNeasy kit (Qiagen, Germantown, Md.) (Goldklang et al., 2012). The RNA was then further processed to obtain cDNA, which was used for Real Time (RT) PCR analysis. TaqMan gene expression assays (Applied Biosystems, Carlsbad, Calif.) were performed to assess gene-transcript levels with the use of an ABI Prism 7900HT Sequence Detection System (Applera, Foster City, Calif.) (Goldklang et al., 2012). The following primers were used to check the respective gene expression: ABCA1 (Hs01059118_m1), ABCG1 (Hs00245154_m1), MMP-9 (Mm00442991_m1), IL-1β (Mm00434227_g1), TNF-α (Mm00443260_g1) and GAPDH (4352932E) from TaqMan Gene Expression Assays, Applied Biosystems, CA. β-actin was used as a control since it is a housekeeping gene.

[2] = test system: murine disease models of atherosclerosis; conditions: mouse, in vivo; cited from earlier work
[3] = biological target: T1, farnesoid X receptor (FXR (NR4H4)) (Homo sapiens, UniProt Q96RI1); conditions: cited from earlier work
T1 sequence (Q96RI1 1-486): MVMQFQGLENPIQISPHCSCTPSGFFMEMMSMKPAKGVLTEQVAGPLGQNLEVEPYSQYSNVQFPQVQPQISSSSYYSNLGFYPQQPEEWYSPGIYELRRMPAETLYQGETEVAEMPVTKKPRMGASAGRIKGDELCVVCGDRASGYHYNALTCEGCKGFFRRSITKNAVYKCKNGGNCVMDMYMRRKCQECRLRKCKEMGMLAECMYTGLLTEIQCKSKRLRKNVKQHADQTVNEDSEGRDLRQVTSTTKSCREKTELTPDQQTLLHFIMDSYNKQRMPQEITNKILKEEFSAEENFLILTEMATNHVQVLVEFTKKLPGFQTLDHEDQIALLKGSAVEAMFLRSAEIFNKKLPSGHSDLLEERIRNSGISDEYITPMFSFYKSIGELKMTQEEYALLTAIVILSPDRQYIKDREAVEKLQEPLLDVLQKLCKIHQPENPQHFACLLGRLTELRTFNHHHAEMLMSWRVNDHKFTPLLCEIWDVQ

[4] = test system: mice exposed to cigarette smoke for 10 days; assay: Acute 10 day cigarette smoke exposure model with LXR agonist IP; assay type: in vivo, mouse
Description: as §1, §2, §3
To determine if the mechanisms identified in vitro contributed to changes in smoke induced lung inflammation in vivo, cigarette smoke studies were performed in mice. The treatment of mice exposed to cigarette smoke in an acute 10 day model with 25 mg/kg of intraperitoneal (IP) injections of an LXR agonist daily during the last 4 days of exposure was examined. […] Treatment with the LXR agonist was capable of blocking the already established inflammation and decreased the total inflammatory cell counts (FIG. 15A.). Furthermore, the cigarette smoke induced TNFα protein expression in the BAL was abrogated in mice treated with the LXR agonist (FIG. 15B.). […] Most importantly, cigarette smoke induced MMP-9 expression and activity in the BAL were inhibited by the treatment with the LXR agonist (FIG. 15C-D.), which correlated with inhibition of inflammation and the inflammatory driven increase in TNFα.

[5] = 5 months smoke, mass spectrometry
[6] = 5 months smoke, listed as LXR agonist
[7] = diet 0.015% w/w, 5 months smoke
[8] = 25 mg/kg IP, 10 days smoke exposure, Luminex
[9] = 25 mg/kg IP, 10 days smoke exposure, listed as LXR agonist

O=S(=O)(c1ccccc1)N(CC(F)(F)F)c1ccc(C(O)(C(F)(F)F)C(F)(F)F)cc1 [T0901317, N-(2,2,2-trifluoroethyl)-N-[4-[2,2,2-trifluoro-1-hydroxy-1-(trifluoromethyl)ethyl]phenyl]-benzenesulfonamide]
collagen airway and vessels deposition ([1]; 5 months smoke, Masson Trichrome staining): decrease | cigarette smoke induced increase in C14 and C16 ceramides in BAL [1, 5]: reduced | total level of ceramides in the BAL [1, 5]: reduced | smoke induced increase in IFNγ and MCP-1 in the lung ([1]; diet 0.015% w/w): inhibited | cigarette smoke induced protein levels of TNFα in the BAL ([1]; 5 months smoke): decreased | level of ABCA1 in BAL and lung tissue ([1]; 5 months smoke): induced | total inflammatory cell counts in BAL ([1]; 5 months smoke): decrease | cigarette smoke induced protein levels of TNFα in the BAL [1, 6]: abrogated | level of ABCA1 in BAL and lung tissue [1, 6]: successfully increased; also recorded: restored | total inflammatory cell counts in BAL [1, 6]: significantly decreased | lung structure / emphysema development by mean linear intercept [1, 7]: preserved the lung structure and blocked emphysema development | mRNA expression of MMP-9 and TNFα in the lungs [1, 7]: No significant changes | mRNA levels of MMP-9 in the BAL cells [1, 7]: not significantly altered | alveolar macrophage population exhibiting a foam cell-like phenotype ([1]; diet 0.015% w/w, 5 months smoke, differential BAL cell counts): significantly reduced | lung elastance ([1]; diet 0.015% w/w, 5 months smoke, flexiVent): increase | lung compliance ([1]; diet 0.015% w/w, 5 months smoke, flexiVent, vs untreated smoke exposed mice): decrease | smoke induced MMP-9 activity in the BAL ([1]; diet 0.015% w/w, gelatin zymography): attenuated | cholesterol level in serum and liver [2]: lowers | development of atherosclerosis [2]: inhibits | activation of FXR compared with chenodeoxycholic acid [3]: more potently than a natural bile acid FXR ligand, chenodeoxycholic acid | potency as activator of LXR versus FXR [3]: much more potent activator of LXR than FXR | level of ABCA1 in BAL (alveolar macrophages) ([4]; 25 mg/kg IP daily, last 4 days of 10 day smoke exposure, listed as LXR agonist): re-expression; also recorded: successfully increased | pulmonary inflammation: total inflammatory cell counts in BAL ([4]; 25 mg/kg IP, 10 days smoke exposure): resolve | cigarette smoke induced TNFα protein expression in the BAL [4, 8]: abrogated | smoke induced increase in IL-1β, IL-17, IFNγ and MCP-1 in the lung tissue [4, 8]: inhibited | cigarette smoke induced MMP-9 expression and activity in the BAL [4, 9]: inhibition; also recorded: inhibited | mRNA levels of TNFα in BAL alveolar macrophages [4, 9]: inhibition; also recorded: decreased | pulmonary inflammation: total inflammatory cell counts in BAL [4, 9]: significantly blocked; also recorded: decreased
